For the assay, the target named is recombinant DYRK1A kinase (Homo sapiens (Human), UniProt Q13627). Kind of assay: DYRK1A kinase assay (Ser/Thr 18 peptide Z-lyte FRET). As to conditions: DYRK1A kinase activity, Z-lyte Ser/Thr 18 peptide, 15 μM ATP; method text calls the value IC50; read-out: EC50 (the source's name). In kind it is biochemical. In outline:
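Steps: combine 0.25 μg/mL kinase, 15 μM ATP and 4 μM peptide with test compound; incubate 1 h at room temperature; add diluted development reagent for another hour; read coumarin and fluorescein emission at Ex 400. The emission ratio yields percent phosphorylation, from which IC50 is derived.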

For the compound `COc1nc(N[C@H]2CCN(C(C)=O)C[C@H]2F)nn2ccc(-c3ccc4nnn(CCF)c4c3)c12` [Compound 664, 1-((3R,4S)-3-Fluoro-4-((5-(1-(2-fluoroethyl)-1H-benzo[d][1,2,3]triazol-6-yl)-4-methoxypyrrolo[2,1-f][1,2,4]triazin-2-yl)amino)piperidin-1-yl)ethan-1-one], the IC50 amounted to 1.6 nM. As for `COc1nc(NC2CCOCC2)nn2ccc(-c3cnc4nccn4c3)c12` [Compound 271, 5-(Imidazo[1,2-a]pyrimidin-6-yl)-4-methoxy-N-(tetrahydro-2H-pyran-4-yl)pyrrolo[2,1-f][1,2,4]triazin-2-amine], the figure is 3.8 nM. As for `COc1nc(N[C@H]2C[C@@](C)(NC(=O)C3(C#N)CC3)C2)nn2ccc(-c3ccn4nccc4c3)c12` [Compound 394, 1-Cyano-N-((1s,3s)-3-((4-methoxy-5-(pyrazolo[1,5-a]pyridin-5-yl)pyrrolo[2,1-f][1,2,4]triazin-2-yl)amino)-1-methylcyclobutyl)cyclopropane-1-carboxamide], the figure is 2.1 nM; as for `COc1nc(NC2CCN(CC(F)F)CC2)nn2ccc(-c3ccc4ncccc4c3)c12` [Compound 304, N-(1-(2,2-Difluoroethyl)piperidin-4-yl)-4-methoxy-5-(quinolin-6-yl)pyrrolo[2,1-f][1,2,4]triazin-2-amine], 14.3 nM; as for `COc1nc(N[C@H]2CC[C@H](O)CC2)nn2ccc(-c3ccc4nnn(CC(F)F)c4c3)c12` [Compound 719, trans-4-((5-(1-(2,2-Difluoroethyl)-1H-benzo[d][1,2,3]triazol-6-yl)-4-methoxypyrrolo[2,1-f][1,2,4]triazin-2-yl)amino)cyclohexan-1-ol], 0.3 nM. As for `COc1nc(N[C@@H]2CCN(C(C)=O)CC2(F)F)nn2ccc(-c3ccc4nnn(C(C)C)c4c3)c12` [Compound 691, (R)-1-(3,3-Difluoro-4-((5-(1-isopropyl-1H-benzo[d][1,2,3]triazol-6-yl)-4-methoxypyrrolo[2,1-f][1,2,4]triazin-2-yl)amino)piperidin-1-yl)ethan-1-one], the figure is 1.4 nM. As for `COc1nc(N[C@H]2C[C@](C)(O)C2)nn2ccc(-c3ccc4nnn(CC(F)F)c4c3)c12` [Compound 711, (1r,3r)-3-((5-(1-(2,2-Difluoroethyl)-1H-benzo[d][1,2,3]triazol-6-yl)-4-methoxypyrrolo[2,1-f][1,2,4]triazin-2-yl)amino)-1-methylcyclobutan-1-ol], the IC50 was 0.5 nM.

Turning to `COc1nc(N[C@@H]2CCN(C3COC3)CC2(F)F)nn2ccc(-c3cc(F)c4nnn(CC(F)F)c4c3)c12` [Compound 822, (R)—N-(3,3-Difluoro-1-(oxetan-3-yl)piperidin-4-yl)-5-(1-(2,2-difluoroethyl)-4-fluoro-1H-benzo[d][1,2,3]triazol-6-yl)-4-methoxypyrrolo[2,1-f][1,2,4]triazin-2-amine], the IC50 is 1.8 nM.

Take `COc1nc(N[C@@H]2CCN(C3COC3)C[C@@H]2F)nn2ccc(-c3ccc4nccnc4c3)c12` [Compound 373, N-((3S,4R)-3-Fluoro-1-(oxetan-3-yl)piperidin-4-yl)-4-methoxy-5-(quinoxalin-6-yl)pyrrolo[2,1-f][1,2,4]triazin-2-amine]: the IC50 amounted to 2.9 nM. On to `COc1nc(N[C@H]2CC[C@](C)(O)CC2)nn2ccc(-c3cc4ncccc4[nH]3)c12` [Compound 280, trans-4-((4-Methoxy-5-(1H-pyrrolo[3,2-b]pyridin-2-yl)pyrrolo[2,1-f][1,2,4]triazin-2-yl)amino)-1-methylcyclohexan-1-ol], for which the IC50 amounted to 33.4 nM.

As for `COc1nc(N[C@H]2CC[C@H](C(C)(C)O)CC2)nn2ccc(-c3ccc4nccnc4c3)c12` [Compound 342, 2-(trans-4-((4-Methoxy-5-(quinoxalin-6-yl)pyrrolo[2,1-f][1,2,4]triazin-2-yl)amino)cyclohexyl)propan-2-ol], the IC50 was 3.2 nM.
